{
  "source": "patent US12030908B2",
  "about": "“Antimicrobial compounds, compositions, and uses thereof” (Lakewood Amedex, Inc., priority 2017, dated 2024)",
  "key": {"[1]": {"tested_on": "Escherichia coli (strain CFT073, TPPS 1041)", "test": "Initial urinary tract infection model in BALB/c mice, transurethral treatment (Example 9)", "format": "in vivo", "conditions": "50 mg/kg transurethral 24 hr post-challenge; 60 minutes post-treatment", "source_text": "Female BALB/c mice (20-22 g) ordered from Envigo are acclimated to housing conditions and handled in accordance with Animal Use Protocol (AUP) number TP-08. Animals are fed irradiated Teklad Global 29 18 Rodent Diet and water ad libitum. Mice are housed 6/cage in static cages with irradiated ⅛″ Teklad corn cobbedding 7902 inside bioBubble® clean rooms that provide H.E.P.A filtered air into the bubble environment at 100 complete air changes per hour. The environment is controlled to a temperature range of 74°±4° F. and a humidity range of 30-70%. All procedures carried out in this experiment are conducted in compliance with the laws, regulations, and guidelines of the National Institutes of Health and with the approval of the TransPharm Preclinical Solutions Animal Care and Use Committee.\nA clinical isolate of Escherichia coli (strain CFT073, TPPS 1041) are procured from the University of Michigan.\nThe organism is grown overnight at 37° C. in ambient atmosphere on trypticase soy agar plates supplemented with 5% sheep blood cells. The culture is aseptically swabbed and transferred to tubes of trypticase soy broth. The optical density is determined at 600 nm. The culture is diluted to provide an inoculum of approximately 7.5 log10 CFU per mouse in a volume of 30 μL. Instillation of the bacterial challenge constituted time 0 hour for the study. Inoculum counts are estimated before inoculation by optical density and confirmed after inoculation by dilution and back counts.\nOne hour prior to bacterial challenge, water is removed from animal cages. […]\nThe primary endpoint used to assess progress of the infection is mean bacterial burden per gram of urinary bladder tissue. […] Colony forming units (CFU) are enumerated and the total bacterial burden per gram of urinary bladder tissue homogenate is calculated.\nThe geometric mean CFU, along with standard error of the mean (SEM), are calculated using Microsoft Excel and bar charts are prepared for the data using GraphPad Prism v. […]"}, "[2]": {"test": "pKa measurement", "format": "physicochemical", "conditions": "read-out: pKa"}, "[3]": {"tested_on": "E. coli", "test": "Broth microdilution MIC at incremental pH, E. coli", "format": "cell-based", "conditions": "Escherichia coli, read-out: MIC", "procedure": "(§1) MIC testing is conducted using the broth (Mueller Hinton Broth) microdilution procedures relevant to each organism group as established by the Clinical and Laboratory Standards Institute (CLSI; 3-7). MIC plates are prepared in accordance with CLSI (3-7). To prepare the test plates, automated liquid handlers are used to conduct serial dilutions and liquid transfers. Automated liquid handlers utilized in this study include the Multidrop 384 (Labsystems, Helsinki, Finland) and the Biomek 2000 (Beckman Coulter, Fullerton CA). The solution is diluted to desired pH using 1 M Citric Acid or 1 M NaOH buffer. A standardized inoculum of each test organism is prepared per CLSI methods (3, 5-7) to equal a 0.5 McFarland standard in the appropriate media followed by an additional 1:20 dilution (1:10 for anaerobes).\n(§2) The plates are then inoculated with 10 μL of the diluted 0.5 McFarland suspension using the Biomek 2000 from low to high drug concentration, resulting in a final concentration of approximately 5×10^5 CFU/mL per well. An un-inoculated plate is incubated for the purpose of assessing solubility of the drug in the test media. The plates are stacked 3 to 4 high, covered with a sterile lid on the top plate, and incubated for 18 to 24 hours according to CLSI. The MIC is recorded as the lowest concentration of respective compound that inhibited visible growth of the organism."}, "[4]": {"tested_on": "P. aeruginosa", "test": "Broth microdilution MIC at incremental pH, P. aeruginosa", "format": "cell-based", "conditions": "Pseudomonas aeruginosa, read-out: MIC", "procedure": "as §1, §2"}, "[5]": {"tested_on": "methicillin susceptible S. aureus (ATCC 29213)", "test": "Bacterial cytological profiling at pH 4, 5.5, 7 (Example 7), S. aureus", "format": "cell-based", "conditions": "125 mg/mL", "procedure": "(§3) This bacterial cytological profiling (BCP) investigation uses methods and materials described previously by Nonejuie, P., Burkart, M., Poglianoa, K., Pogiano, J. (2013). Bacterial cytological profiling rapidly identifies the cellular pathways targeted by antibacterial molecules. Proc. Natl. Acad. Sci. U.S.A. 110(40):16169-16174. doi: 10.1073/pnas.1311066110.\n(§4) For viable cell counts, cells are grown to OD600≈0.4 and diluted 1:1 into buffered or unbuffered media containing various compound concentrations. Samples are then collected and serially diluted (1:10) on a 96 well plate. Five microliters from each well are spotted on LB plates, incubated at 30° C., and viable cells are counted the next day.\n(§5) Samples are collected at 10, 30, 120, and 240 min of exposure for viable cell count and imaging. For imaging, E. coli and S. aureus 200 μL of treated cells per time point are stained with 0.8 μg/mL FM4-64, 1.5 μg/mL DAPI, and 0.4 μM SYTOXGreen (Molecular Probes/Invitrogen). P. aeruginosa samples are stained 0.4 μM SYTOX Green, 28 μg/mL DAPI, and 1 μg/mL FM 4-64. Cells are transferred to an agarose pad (20% LB, 1% agarose) for imaging.\n(§6) For Nu-3 and Nu-8 stocks (at pH 4, 5.5 and 7), stock concentration is 500 mg/mL. For pH 4, the stocks are prepared by dissolving Nu-3 in 25 mM citrate buffer and Nu-8 in 350 mM citric acid. […]"}, "[6]": {"tested_on": "wild type E. coli (ATCC 25922)", "test": "Bacterial cytological profiling at pH 4, 5.5, 7 (Example 7), E. coli", "format": "cell-based", "conditions": "pH 5.5 and 7", "procedure": "as §3, §4, §5, §6"}},
  "note": "Read-outs that look alike come from different tables or passages of the source.",
  "data": [
    {"compound": "gentamicin [reference compound]", "values": [
      {"measurement": "average bladder CFU burden", "setting": "[1]", "result": 6.1, "unit": "log10 CFU"}
    ]},
    {"compound": "COC1[C@@H](OP(=O)(O)OCCCCO)[C@@H](COP(=O)(O)OCCCCO)O[C@H]1n1ccc(=O)[nH]c1=O", "note": "(stereo partly shown) [Nu-2]", "values": [
      {"measurement": "pKa", "setting": "[2]", "result": 2.3}
    ]},
    {"compound": "CCCCOP(=O)(O)OCCOCCOP(=O)(O)OCCCC", "note": "[Nu-5]", "values": [
      {"measurement": "MIC", "setting": "[3]; pH 1", "result": 6.25, "unit": "mg/mL"},
      {"measurement": "MIC", "setting": "[3]; pH 3", "result": 100, "unit": "mg/mL"},
      {"measurement": "MIC", "setting": "[3]; pH 5", "result": 100, "unit": "mg/mL"},
      {"measurement": "MIC", "setting": "[3]; pH 7", "result": 100, "unit": "mg/mL"},
      {"measurement": "pKa", "setting": "[2]", "result": 2.28},
      {"measurement": "MIC", "setting": "[4]; pH 1", "result": 6.25, "unit": "mg/mL"},
      {"measurement": "MIC", "setting": "[4]; pH 3", "result": 100, "unit": "mg/mL"},
      {"measurement": "MIC", "setting": "[4]; pH 5", "result": 100, "unit": "mg/mL"},
      {"measurement": "MIC", "setting": "[4]; pH 7", "result": 100, "unit": "mg/mL"}
    ]},
    {"compound": "CCCCOP(=O)(O)OC[C@H]1O[C@@H](n2cc(C)c(=O)[nH]c2=O)C[C@@H]1OP(=O)(O)OCCCC", "note": "[Nu-3]", "values": [
      {"measurement": "MIC", "setting": "[3]; pH 1", "result": 12.5, "unit": "mg/mL"},
      {"measurement": "MIC", "setting": "[3]; pH 3", "result": "> 100", "unit": "mg/mL"},
      {"measurement": "MIC", "setting": "[3]; pH 5", "result": "> 100", "unit": "mg/mL"},
      {"measurement": "MIC", "setting": "[3]; pH 7", "result": "> 100", "unit": "mg/mL"},
      {"measurement": "cell growth", "setting": "[5]", "result": "slight reduction in cell growth resembling that at pH 4 alone"},
      {"measurement": "effect on cell permeability, cell viability and growth", "setting": "[6]", "result": "ineffective"},
      {"measurement": "MIC", "setting": "[4]; pH 1", "result": 12.5, "unit": "mg/mL"},
      {"measurement": "MIC", "setting": "[4]; pH 3", "result": "> 100", "unit": "mg/mL"},
      {"measurement": "MIC", "setting": "[4]; pH 5", "result": "> 100", "unit": "mg/mL"},
      {"measurement": "MIC", "setting": "[4]; pH 7", "result": "> 100", "unit": "mg/mL"}
    ]},
    {"compound": "CCCCOP(=O)(O)OC[C@H]1O[C@@H](n2cc(C)c(=O)[nH]c2=O)C[C@H]1OP(=O)(O)OCCCC", "note": "[Nu-4]", "values": [
      {"measurement": "pKa", "setting": "[2]", "result": 2.3}
    ]}
  ]
}
